Test results reported in patent publication US11464823B2, “Curcumin carbon quantum dots and use thereof” (priority 2018, dated 2022).

Key:
[1] = test system: EV71; assay: Cytopathic effect (CPE) inhibition assay, RD cells infected with EV71 (pre-, post-, co-treatment); assay type: cell-based, human rhabdomyosarcoma (RD) cells
Procedure: RD cells were seeded at 7.5×10^3 cells/well in 96-well plates and incubated for 24 hours at 37° C. To analyze how Cur-CQDs affect the infectivity of EV71, Cur-CQDs pre-treatment, post-treatment, co-treatment assay was taken as follows. For pre-treatment, Cur-CQDs were pre-incubated with RD cells at 37° C. for 24 hours and then cultured with EV71 for 48 hours at 37° C. For post-treatment, EV71 were pre-incubated with RD cells at 37° C. for 24 hours, after that, cell monolayers were washed with PBS to remove non-adherent virus and further incubated with DMEM (containing 2% FBS and Cur-CQDs) at 37° C. for 48 hours. For co-treatment, EV71 were pre-incubated with series of CQDcurs at 37° C. for 1 hour, then cultured with RD cells for 72 hours at 37° C. Negative (cells only) and positive (cells infected with EV71 without Cur-CQDs) controls were set as well.

[2] = Cytotoxicity / cell viability (Presto blue); assay type: cell-based; settings: human, RD cells
Procedure: The in vitro cellular viability of the as-prepared Cur-CQDs was evaluated using the Presto blue. First, approximately 7.5×10^3 RD cells/well were seeded in 96-cell plates and were fed with DMEM containing 10% fetal bovine serum (FBS). After 24 hours of incubation in a humidified incubator with 5% CO2 at 37° C., the medium was removed from each well, and RD cells were washed with phosphate buffered saline (PBS, pH 7.4). Then, sample solutions (Cur-CQDs with different concentrations) or the control solutions were added in and incubated with cells for 24 hours to 72 hours. Each concentration was tested with 4 sets of parallel samples. After that, the culture medium was replaced with Presto blue and incubated for another 1 hour at 37° C. Finally, fluorescence was measured at an excitation wavelength at 540 nm and an emission wavelength at 590 nm with a BioTek Microplate Reader. The viability of cells was expressed as the percentage of control untreated cells (100%).

EC50 ([1]; Enterovirus A, EV71 in RD cell, read-out: Antiviral activity EC50 (concentration at which inhibition rate of CPE reaches halfway between baseline and maximum)): > 200 µg/mL
Structure (SMILES): COc1cc(/C=C/C(=O)CC(=O)/C=C/c2ccc(O)c(OC)c2)ccc1O [Curcumin]
selectivity ratio ([1]; human): 0.1
CC50 [2]: > 13 µg/mL
